How the values were obtained:
[1] = tested on: antral portion of the stomach; experiment: Effects on gastrointestinal contractility (transducing crystals on antral portion of the stomach); assay type: in vivo, Sprague-Dawley rats
Method: Two male Sprague-Dawley rats, approximately 12 weeks old (Harlan, Indianapolis, Ind.) were anesthetized with urethane and their stomachs were exposed through a small abdominal incision. Two 2.4 mm transducing crystals (Sonometrics, Ontario, Canada) were placed on the antral portion of the stomach such that circular contractions could be monitored as a change in the distance between the two crystals. The crystals were attached with VETBOND TISSUE ADHESIVE (3M, St. Paul, Minn.).
10 ml of norepinephrine (NE) at 1 mM caused a reduction in the distance between the two crystals. The amplitude of the NE-induced decrease was approximately 50% of the acetylcholine-induced increase in distance. Both responses were transient.
A negative control of 10 ml of phosphate buffer solution (PBS) applied topically between the crystals had no effect.
A 14 amino acid zsig33 peptide (zsig33-1, as shown in Example 4) was dissolved in PBS and 10 ml was applied topically for a final concentration of 1 mg, 10 mg or 100 mg.

[2] = Effects on body weight, food intake and glucose clearance; assay type: in vivo, ob/ob mice; conditions: 1 mg/mouse orally twice daily for fourteen days, versus scrambled peptide
Method: Sixteen female ob/ob mice, 8 weeks old, (Jackson Labs, Bar Harbor, Me.) were adapted to a special 4 hour daily feeding schedule for two weeks. The were fed ad libitum from 7:30-11:30 am daily. After two weeks on the feeding schedule, the mice were divided into two groups of 8. One group was given 1.0 mg/mouse of zsig33-1 (14 amino acid peptide) and the other vehicle (a 14 amino acid scrambled sequence peptide) in […] sterile 0.1% BSQA by oral gavage just prior to receiving food, and at the end of the 4 hour feeding period. The mice were […] twice daily for fourteen days, during which time food intake and body weight was measured daily. On day 14, immediately after the second oral gavage of the zsig33-1 peptide, the mice were challenged orally with an 0.5 ml volume of 25% glucose. Retro-orbital bleeds were done to determine serum glucose levels immediately prior to administration of the zsig33-1 peptide or vehicle (t=30 min.), and also at 0, 1, 2, and 4 hours following the glucose challenge.

[3] = Effects on glucose absorption after oral glucose challenge; assay type: in vivo, ob/ob mice; conditions: 100 mg orally, 30 minutes prior to an oral glucose challenge (0.5 ml of 25% glucose), serum glucose
Method: Eight female ob/ob mice, approximately 6 weeks old (Jackson Labs, Bar Harbor, Me.) were adapted to a 4 hour daily feeding schedule for two weeks. After two weeks on the feeding schedule, the mice were given 100 mg of a zsig33 peptide (zsig33-1, as shown in Example 4) in 100 ml sterile 0.1% BSA by oral gavage, immediately after their eating period (post-prandially). Thirty minutes later, the mice were challenged orally with a 0.5 ml volume of 25% glucose. Retroorbital bleeds were done to determine serum glucose levels. Blood was drawn prior to zsig33 dosing, prior to oral glucose challenge, and at 1, 2, 4, and 20 hours following the glucose challenge.

[4] = tested on: stomachs of fasted male Sprague-Dawley rats; experiment: Effects on gastric emptying (transit of phenol red through the stomach); assay type: in vivo; conditions: 1 μg applied topically to the stomach five minutes after gavage, measured 30 minutes after the gavage
Method: The effect of topically applied zsig33 peptide (amino acid 24 to 37 of SEQ ID NO: 2) on the transit of phenol red through the stomachs of fasted male Sprague-Dawley rats (Harlan, Indianapolis, Ind.) was evaluated. The rats (6 animals, 8 weeks old) were fasted 24 hrs prior to being anesthetized with urethane (0.5 ml/100 grams of 25% solution). After anesthetizing, the animals were orally gavaged with 1 ml of Phenol Red solution (50 mg/ml in 2% methylcellulose solution).
The stomach of each animal was exposed through a small abdominal incision and either 1 μg zsig33 peptide or a 14 amino acid control of a scrambled sequence peptide was applied topically to the stomach five minutes following the gavage. The amount of Phenol Red remaining in the stomach was determined by measuring optical density of the extracted stomach contents 30 minutes after the gavage.

[5] = tested on: duodenum, jejunum, kidney and other harvested tissues; experiment: Binding studies of FITC-labeled zsig33 peptides in situ (tail vein injection, fluorescent microscopy of tissue sections); assay type: in vivo, Balb C male mice; conditions: FITC-labeled peptide, 0.5 ml (0.5 mg) tail vein, circulated 15 minutes, microscopy at 495 nm
Method: Ten week old Balb C male mice were anesthetized via intramuscular injection and tested for binding of zsig33 peptides in vivo.
Two peptides were tested: the first peptide, zsig33-1, (See Example 4) consisted of residues 24 to 37 of SEQ ID NO:2, and the second peptide, zsig33-2, consisted of residues 24 to 41 of SEQ ID NO:2. A single glycine was used as a negative control. Additionally, a “scrambled” negative control consisting of residues the first peptide which had been rearranged (SEQ ID NO:15) was also tested. The peptides and controls were coupled to fluorescein isothiocyantate (FITC, Molecular Probes, Eugene, Oreg.) in the following manner: The peptides, glycine control and FITC were dissolved in 0.1 M sodium bicarbonate at pH 9.0 to a concentration of 2.0 mg/ml for the peptides and glycine control and 5 mg/ml for FITC, avoiding exposure of the FITC to strong light. […] The buffer was changed daily and unbound FITC in the post-dialyzed buffer was measured by HPLC. […] Peptide- or glycine-bound FITC was determined by measuring the absorbance of the dialyzed FITC-bound material at 498 nm and dividing by the extinction coefficient of fluorescein, […]. The molar ratio of fluorescein to peptide (mole FITC/mole peptide) was then determined. […]

fluorescence in duodenum, jejunum and in the collecting ducts and convoluted tubules of the kidney compared to the glycine and "scrambled" controls [5]	Compound	amplitude of the NE-induced decrease relative to the acetylcholine-induced increase in distance ([1]; 10 ml of 1 mM applied topically)	change in the distance between the two crystals ([1]; 10 ml of 1 mM applied topically to the stomach, anesthetized rats)	change in crystal distance (contractions) ([1]; 10 ml in PBS applied topically, 1 mg)	response in rate and amplitude of the contractions ([1]; 10 ml in PBS applied topically, 10 mg and 100 mg, compared with 1 mg)	daily body weight [2]	daily food intake [2]	post-prandial glucose absorption [3]	reduction of the amount of Phenol Red remaining in the stomach compared to a scrambled peptide [4]
–	NC[C@H](O)c1ccc(O)c(O)c1 [norepinephrine, reference compound]	approximately 50%	reduction	–	–	–	–	–	–
increased fluorescence	zsig33-1: 14 amino acid peptide corresponding to amino acid residue 24 (Gly) to amino acid residue 37 (Gln) of SEQ ID NO: 2 (GSSFLSPEHQRVQQ; listed as Homo sapiens)	–	–	sustained, rhythmic increase and decrease in crystal distance	enhanced responses in both rate and amplitude	no affect	no affect	enhanced post-prandial glucose absorption	approximately 25%
increased fluorescence	zsig33-2: peptide consisting of residues 24 to 41 of SEQ ID NO:2 (GSSFLSPEHQRVQQRKES; listed as Homo sapiens)	–	–	–	–	–	–	–	–

Reference: patent US8124356B2, “Methods of purifying zsig33” (ZymoGenetics, Inc., priority 1999, dated 2012)
